Among the data in ChEMBL document CHEMBL1909046, “DrugMatrix in vitro pharmacology data” are IC50 and Ki values, retold here.

Assay [1] deals with C-C chemokine receptor type 5 (Homo sapiens, UniProt P51681). It is filed as cell membranes, Membrane. The settings on record: hek293.
Assay [2] concerns the target Delta-type opioid receptor (Homo sapiens, UniProt P41143). It is filed as cell membranes, HEK293, Membrane. The settings on record: hek293. Note: in other assays of this panel Not Active means under 50% inhibition at 10 µM.
Assay [3] concerns the target T1, Alpha-1B adrenergic receptor (Rattus norvegicus, UniProt P15823).
T1 sequence (P15823 whole entry): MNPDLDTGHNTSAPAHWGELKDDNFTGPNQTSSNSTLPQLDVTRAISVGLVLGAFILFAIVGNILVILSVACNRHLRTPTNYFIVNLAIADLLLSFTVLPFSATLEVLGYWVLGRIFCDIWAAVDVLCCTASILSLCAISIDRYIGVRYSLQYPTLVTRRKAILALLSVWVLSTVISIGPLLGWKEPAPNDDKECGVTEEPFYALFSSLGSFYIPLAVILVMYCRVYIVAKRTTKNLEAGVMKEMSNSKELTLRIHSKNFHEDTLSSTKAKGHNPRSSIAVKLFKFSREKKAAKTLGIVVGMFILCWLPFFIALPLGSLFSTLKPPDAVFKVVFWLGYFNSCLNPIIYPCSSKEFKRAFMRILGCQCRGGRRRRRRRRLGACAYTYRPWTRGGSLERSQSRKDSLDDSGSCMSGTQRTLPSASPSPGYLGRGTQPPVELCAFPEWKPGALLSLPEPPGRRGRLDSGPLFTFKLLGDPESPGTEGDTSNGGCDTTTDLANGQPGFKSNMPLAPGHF
In words: DRUGMATRIX: Alpha-1B adrenergic receptor radioligand binding (ligand: prazosin). Conditions: Not Active = under 50% inhibition at 10 µM. It counts as cell membranes, Wistar, Liver, Membrane.

The target in a further assay is T2, Adenosine receptor A1 (Homo sapiens, UniProt P30542).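 Note: radioligand binding assay at the adenosine A1 receptor, with DPCPX serving as the labelled ligand; in other assays of this panel Not Active means under 50% inhibition at 10 µM.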
T2 sequence (P30542 whole entry): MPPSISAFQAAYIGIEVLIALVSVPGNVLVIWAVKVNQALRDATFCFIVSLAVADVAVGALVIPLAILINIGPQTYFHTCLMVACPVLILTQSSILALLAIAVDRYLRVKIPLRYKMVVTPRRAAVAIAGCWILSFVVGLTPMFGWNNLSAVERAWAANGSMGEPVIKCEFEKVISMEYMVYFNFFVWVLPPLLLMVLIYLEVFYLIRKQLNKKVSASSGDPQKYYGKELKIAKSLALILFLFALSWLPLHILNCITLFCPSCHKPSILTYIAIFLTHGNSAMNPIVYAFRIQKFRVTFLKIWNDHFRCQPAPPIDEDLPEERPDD
It is filed as cell membranes, CHO, Membrane. Conditions: cho.

Assay [4] is described as follows: DRUGMATRIX: Calcium Channel Type L, Benzothiazepine radioligand binding (ligand: [3H] Diltiazem). It counts as cell membranes, Rattus norvegicus, Wistar, Brain, Membrane. Conditions: Not Active = under 50% inhibition at 10 µM.
The target of assay [5] is T3, Muscarinic acetylcholine receptor M2 (Homo sapiens, UniProt P08172). Note: in other assays of this panel Not Active means under 50% inhibition at 10 µM.
T3 sequence (P08172 whole entry): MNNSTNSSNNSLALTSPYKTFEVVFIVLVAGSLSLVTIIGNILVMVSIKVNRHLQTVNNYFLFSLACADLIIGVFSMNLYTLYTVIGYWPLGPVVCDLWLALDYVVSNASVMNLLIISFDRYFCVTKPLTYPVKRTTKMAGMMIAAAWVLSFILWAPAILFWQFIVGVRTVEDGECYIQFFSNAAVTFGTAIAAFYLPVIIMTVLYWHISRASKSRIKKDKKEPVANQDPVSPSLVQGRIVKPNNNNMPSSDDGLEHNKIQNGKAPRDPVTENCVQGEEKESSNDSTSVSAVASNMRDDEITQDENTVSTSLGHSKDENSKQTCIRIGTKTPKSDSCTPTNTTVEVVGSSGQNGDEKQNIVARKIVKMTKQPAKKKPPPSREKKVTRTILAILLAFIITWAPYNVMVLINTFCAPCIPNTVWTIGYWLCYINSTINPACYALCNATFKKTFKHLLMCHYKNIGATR
It is filed as cell membranes, CHO-K1, Membrane. Conditions: cho-k1.

For orientation: IC50 means the concentration needed to halve the response being measured. The Ki is the equilibrium dissociation constant of an inhibitor or competing ligand from its target.

Chain of C-C chemokine receptor type 5 (P51681 whole entry): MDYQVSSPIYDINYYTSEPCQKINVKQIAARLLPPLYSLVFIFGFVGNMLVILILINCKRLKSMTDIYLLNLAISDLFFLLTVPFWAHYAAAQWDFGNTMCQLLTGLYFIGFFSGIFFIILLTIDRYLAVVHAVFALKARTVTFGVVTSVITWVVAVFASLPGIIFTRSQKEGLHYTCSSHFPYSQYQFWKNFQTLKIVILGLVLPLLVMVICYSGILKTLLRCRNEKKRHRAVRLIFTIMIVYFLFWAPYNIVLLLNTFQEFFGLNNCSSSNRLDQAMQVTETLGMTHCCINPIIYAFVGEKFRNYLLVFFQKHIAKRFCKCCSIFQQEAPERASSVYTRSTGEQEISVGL
Chain of Delta-type opioid receptor (P41143 whole entry): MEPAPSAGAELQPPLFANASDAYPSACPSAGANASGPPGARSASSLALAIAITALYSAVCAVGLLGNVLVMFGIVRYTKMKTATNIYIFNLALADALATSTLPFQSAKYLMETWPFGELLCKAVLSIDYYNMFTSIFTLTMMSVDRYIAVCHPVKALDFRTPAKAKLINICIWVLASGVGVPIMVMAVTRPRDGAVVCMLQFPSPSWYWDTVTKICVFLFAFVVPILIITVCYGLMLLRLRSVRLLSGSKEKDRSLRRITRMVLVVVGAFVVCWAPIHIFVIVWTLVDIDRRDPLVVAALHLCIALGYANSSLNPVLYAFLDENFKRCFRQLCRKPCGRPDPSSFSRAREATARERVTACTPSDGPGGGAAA

As for `COc1ncnc(NS(=O)(=O)c2ccc(N)cc2)c1OC` [SULFADOXINE], the IC50 entry (in assay [1]; in assay [2]; in assay [3]; at Adenosine receptor A1; in assay [4]; in assay [5]) was “Not Active” in each case. The Ki result in assay [4] is on record as “Not Active”.
Take `Nc1ccc(S(=O)(=O)Nc2nccs2)cc1` [SULFATHIAZOLE]: the IC50 result (in assay [1]; in assay [2]; in assay [3]; against Adenosine receptor A1; in assay [4]; in assay [5]) was “Not Active” in each case. The Ki entry in assay [4] is listed as “Not Active”.
Consider `C[C@]12CC[C@H]3[C@@H](CCC4=CC(=O)CC[C@@]43C)[C@@H]1CC[C@@H]2O` [TESTOSTERONE], for which the IC50 result (in assay [1]; in assay [2]; in assay [3]; against Adenosine receptor A1; in assay [4]; in assay [5]) was “Not Active” throughout. The inhibition constant (Ki) result in assay [4] is “Not Active”.
Consider `CC(C)(C)NC[C@H](O)COc1nsnc1N1CCOCC1` [TIMOLOL], for which the IC50 result (in assay [1]; in assay [2]; in assay [3]; on Adenosine receptor A1; in assay [4]; in assay [5]) was “Not Active” each time. In addition, the Ki result in assay [4] is listed as “Not Active”.
Take `CCS(=O)(=O)CCn1c([N+](=O)[O-])cnc1C` [TINIDAZOLE]: the IC50 result (in assay [1]; in assay [2]; in assay [3]; on Adenosine receptor A1; in assay [4]; in assay [5]) was “Not Active” in each case. The Ki result in assay [4] is “Not Active”.
Take `C[C@@H]1C[C@H]2[C@@H]3CCC4=CC(=O)C=C[C@]4(C)C3=CC[C@]2(C)[C@H]1C(=O)CN1CCN(c2cc(N3CCCC3)nc(N3CCCC3)n2)CC1` [TIRILAZAD]: the concentration for half-maximal inhibition (IC50) entry in assay [1] was “Not Active”; in assay [2] it was “Not Active”; in assay [3], “Not Active”; on Adenosine receptor A1, “Not Active”; in assay [4] (read-out: IC50) it was 2690 nM; in assay [5] it was “Not Active”. In addition, the Ki in assay [4] (read-out: Ki) was 2400 nM.
For `NC[C@H]1O[C@H](O[C@H]2[C@H](O)[C@@H](O[C@H]3O[C@H](CO)[C@@H](O)[C@H](N)[C@H]3O)[C@H](N)C[C@@H]2N)[C@H](N)C[C@@H]1O` [TOBRAMYCIN], the half-inhibitory concentration (IC50) entry (in assay [1]; in assay [2]; in assay [3]; on Adenosine receptor A1; in assay [4]; in assay [5]) was “Not Active” throughout. Also, the Ki entry in assay [4] was “Not Active”.
As for `O=C(O)C(Cl)(Cl)Cl` [TRICHLOROACETIC ACID], the IC50 result (in assay [1]; in assay [2]; in assay [3]; on Adenosine receptor A1; in assay [4]; in assay [5]) was “Not Active” in each case. In addition, in assay [4], the inhibition constant Ki entry was “Not Active”.
`COc1ccc(CN2CCNCC2)c(OC)c1OC` [TRIMETAZIDINE]: the IC50 result (in assay [1]; in assay [2]; in assay [3]; against Adenosine receptor A1; in assay [4]; in assay [5]) was “Not Active” throughout. Also, the inhibition constant (Ki) result in assay [4] is recorded as “Not Active”.
Regarding `CC(=O)O[C@H]1C[C@@H]2CC[C@@H]3[C@H](CC[C@@]4(C)[C@H]3C[C@H]([N+]3(C)CCCCC3)[C@@H]4OC(C)=O)[C@@]2(C)C[C@@H]1N1CCCCC1.[Br-]` [VECURONIUM BROMIDE], the IC50 entry (in assay [1]; in assay [2]; in assay [3]; on Adenosine receptor A1; in assay [4]; in assay [5]) was “Not Active” in each case. Moreover, the Ki entry in assay [4] is on record as “Not Active”.
With `COc1cc(C(=O)NS(=O)(=O)c2ccccc2C)ccc1Cc1cn(C)c2ccc(NC(=O)OC3CCCC3)cc12` [ZAFIRLUKAST], the IC50 result (in assay [1]; in assay [2]; in assay [3]; at Adenosine receptor A1; in assay [4]; in assay [5]) was “Not Active” each time. Also, the inhibition constant (Ki) result in assay [4] is “Not Active”.
Consider `Cc1cn([C@H]2C[C@H](N=[N+]=[N-])[C@@H](CO)O2)c(=O)[nH]c1=O` [ZIDOVUDINE], for which the IC50 result (in assay [1]; in assay [2]; in assay [3]; on Adenosine receptor A1; in assay [4]; in assay [5]) was “Not Active” in each case. Moreover, the Ki result in assay [4] is on record as “Not Active”.
Take STANNOUS FLUORIDE: the 50% inhibitory concentration (IC50) entry (in assay [1]; in assay [2]; in assay [3]; at Adenosine receptor A1; in assay [4]; in assay [5]) was “Not Active” throughout. Also, the Ki result (in assay [1]; in assay [2]; in assay [3]; at Adenosine receptor A1; in assay [4]; in assay [5]) was “Not Active” in each case.
As to THIMEROSAL, the half-inhibitory concentration (IC50) entry (in assay [1]; in assay [2]; in assay [3]; at Adenosine receptor A1; in assay [4]; in assay [5]) was “Not Active” in each case. For the same molecule, the Ki result (in assay [1]; in assay [2]; in assay [3]; at Adenosine receptor A1; in assay [4]; in assay [5]) was “Not Active” in each case.
